# Data as given in patent publication US5049372A, “Anticancer activities in a host by increasing blood and plasma adenosine 5'-triphosphate (ATP) levels” (priority 1988, dated 1991).
# Where a name gives a salt, the structure may show the parent alone.
# Columns and labels:
# tumor cells = conditions: low doses; prior application Ser. No. 397,897; cited from earlier work
# CAPAN-1 xenografts = assay: Arrest of growth of CAPAN-1 xenografts in athymic nu/nu mice (Table 2); format: in vivo, human; conditions: experiment 5, 10 F, 0.5 × 10^5 cells, 9 weeks, 1 ml of 50 mM i.p.
# Method: (§1) The tumor cell lines employed were CT26, a mouse undifferentiated, aggressive colon carcinoma, and CAPAN-1, a well-differentiated human pancreatic adenocarcinoma. […] The cells are shown to be free of Mycoplasma contamination. Cells are cultured at 37° C. in a humidified atmosphere of 5% CO2 /95% air in MEM supplemented with antibiotics (100 units of penicillin per ml and 100 μg streptomycin per ml), L-glutamine (2 mM), non-essential amino acids (0.1 mM), sodium pyruvate (1 mM), and 10% fetal bovine serum.
# (§2) In the tests, females and males CB6F1 mice (a standard F1 hybrid of BALB/C and C57BL/6) obtained from Jackson Laboratories, Bar Harbor, Maine and athymic outbred NCr nu/nu mice (males and females) from the Department of Radiation Medicine, Massachusetts General Hospital, Boston, Mass. 02114 are used. All the mice are kept for at least two weeks before inoculation of the tumors and the start of treatment and are 7-9 weeks old (CB6F1) or 6-7 weeks old (athymic nu/nu) at the start of the procedure. Animals weigh 20-25 g (females) or 23-28 g (males), are housed 5-12 per cage, and have ad libitum access to food and water.
# (§3) Tumor cells are removed from subconfluent cultures by a mild trypsin-EDTA treatment, the cell pellet is washed once with MEM without serum and the cells are suspended at the desired cell numbers in PBS (phosphate-bufferedsaline, 8 g NaCl, 0.2 g KCl, 1.15 g Na2 HPO4.7H2 O, and 0.2 g KH2 PO4 per liter). Cell suspensions are shown to be at least 90% viable by trypan blue exclusion. Mice are injected subcutaneously in the right hind footpad with tumor cells suspended in 50 μl of PBS. The regular protocol (unless otherwise stated) consists of daily i.p. injections of 1 ml of 0.85% NaCl solution or 1 ml of 50 mM of AMP, ADP, or ATP in 0.85% NaCl (from stock solutions adjusted to pH 6.2) starting one day after tumor inoculation and given for ten consecutive days.
# (§4) Injections are administered with 30 gauge needles and the mice are lightly anesthetized with ether. The mice are weighed before the start of treatment and once a week during and after treatment. After the tumors become palpable, tumor sizes are determined every three days. The animals are sacrificed, tumors are excised and weighed before they reach 10% of the animals' weight.
# The effects of AMP, ADP, and ATP on human tumor xenografts in nude mice were evaluated utilizing the pancreatic ductal adenocarcinoma CAPAN-1 (see Kyriazis AP, Kyriazis AA, Scarpelli DG, Fogh J, Rao SM, Lepera R., "Human Pancreatic Adenocarcinoma Line CAPAN-1 in Tissue Culture and the Nude Mouse", Am. J. Pathol., 1982, 106, 250-260).
# Treatment schedules consist of single daily i.p. injections for 10 consecutive days, starting one day after tumor inoculation. Tumor burden is relatively low (0.5-1×10^5 cells implanted) and tumor growth is slow (tumors became palpable 4-6 weeks after inoculation).
# [1] = Host toxicity (deaths, body weight) in treated mice; format: in vivo, mouse; conditions: i.p. injections of adenine nucleotides
# Method: as §3, §4
# CT26 tumors = assay: Growth inhibition of s.c. footpad CT26 tumors in CB6F1 mice by daily i.p. adenine nucleotides (Table 1); format: in vivo, mouse; conditions: 0.5 × 10^6 cells, 1 ml of 50 mM i.p. daily
# Method: as §1, §2, §3, §4
# The growth inhibitory properties of adenine nucleotides against CT26 murine colon carcinoma, which are inoculated s.c. in the hind footpad of CB6F1 mice, are illustrated in Table 1 hereinbelow. […] No significant differences between males and females are observed either in the rate of tumor growth or in the tumor's response to adenine nucleotides treatment.
# [2] = ATP levels in mouse blood (total cellular) and plasma after i.p. injection (Table 3); format: in vivo; conditions: CB6F1; for Blood ATP levels: total cellular
# Method: The mice are anesthetized with ether during the procedure. The plasma is prepared by immediate centrifugation of the blood in a Beckman microfuge (30 sec at 8000 xg). Blood (20 μl) or plasma (100 μl) aliquots are added to 1 ml of cold 7% trichloroacetic acid. […] The determination of ATP levels in the extracts is performed by bioluminometry (luciferinluciferase) using a Turner Designs Bioluminescence Photometer.
# [3] = tested on: blood plasma phosphodiesterase; conditions: anticoagulant; chelation of divalent cations; cited from earlier work
# human subjects = conditions: single rapid injections of 40 mg, intravenous or intra-arterial; cited from earlier work
# tumor-bearing hosts = conditions: literature; cited from earlier work
# [4] = experiment 3, 12 M per group, day 13
# [5] = experiment 4, 11 F per group, day 14
# [6] = 1 hour after i.p. 1 ml of 50 mM
# [7] = 5 hours after i.p. 1 ml of 50 mM
molecule,measurement,setting,value
"Nc1ncnc2c1ncn2[C@@H]1O[C@H](COP(=O)(O)OP(=O)(O)O)[C@@H](O)[C@H]1O [ADP, adenosine 5'-diphosphate]",Effect on growth of tumor cells in vitro (in words),tumor cells,marked inhibition of DNA synthesis and arrest of significant populations of cells in the S phase of their cycle
same,Arrested tumors/implanted tumors,CAPAN-1 xenografts,6/10
same,Deaths,[1],"Occasionally, an animal treated with ATP or ADP would die a few hours after injection"
same,Tumor diameter,CT26 tumors; [4],1.3 ± 0.2 cm
same,Tumor weight,CT26 tumors; [4],0.73 ± 0.23 g
same,Tumor diameter,CT26 tumors; [5],1.1 ± 0.2 cm
same,Tumor weight,CT26 tumors; [5],0.86 ± 0.27 g
same,Plasma ATP levels,[2]; [6],2.66 ± 0.46 µM
same,Blood ATP levels,[2]; [6],1.28 ± 0.30 mM
same,Plasma ATP levels,[2]; [7],2.75 ± 0.87 µM
same,Blood ATP levels,[2]; [7],1.65 ± 0.41 mM
O=C(O)CC(O)(CC(=O)O)C(=O)O [Citrate],Inhibition of blood plasma phosphodiesterase activity,[3],inhibit the activity of a blood plasma phosphodiesterase
"Nc1ncnc2c1ncn2[C@@H]1O[C@H](COP(=O)(O)OP(=O)(O)OP(=O)(O)O)[C@@H](O)[C@H]1O [sodium salt of ATP, reference compound]",Subjective and physiological changes in human subjects,human subjects,small subjective and physiological changes in human subjects
insulin: the anabolic hormone insulin,Effect against rapid weight losses in tumor-bearing hosts,tumor-bearing hosts,effective against rapid weight losses in tumor-bearing hosts
same,Effect on growth of the tumor itself,tumor-bearing hosts,do not inhibit the growth of the tumor itself
